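Tested at 5 concentrations; 48 h exposure; 96-well plates; endpoints linearly interpolated, else capped at highest concentration. GI50 is the concentration that inhibits growth by half.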 Active and inactive are the calls of the source. Rule as the data show it: active = GI50 up to about 1.1 µM and inactive = higher.
What was measured:
Test in all cases: NCI-60 cell line screen, 48 h
[1] = system: CCRF-CEM
[2] = system: DU-145
[3] = system: HCT-15
[4] = system: HL-60
[5] = system: HT-29
[6] = system: IGROV-1
[7] = system: KM12
[8] = system: LOX IMVI
[9] = system: M14
[10] = system: MCF7
[11] = system: NCI-H23
[12] = system: OVCAR-4
[13] = system: OVCAR-8
[14] = system: SF-295
[15] = system: SK-MEL-2
[16] = system: SK-OV-3
[17] = system: SW-620
[18] = system: UACC-62

| Compound | GI50 [1] | GI50 [2] | GI50 [3] [µM] | GI50 [4] | GI50 [5] | GI50 [6] | GI50 [7] | GI50 [8] | GI50 [9] | GI50 [10] | GI50 [11] | GI50 [12] | GI50 [13] | GI50 [14] | GI50 [15] | GI50 [16] | GI50 [17] | GI50 [18] |
| --- | --- | --- | --- | --- | --- | --- | --- | --- | --- | --- | --- | --- | --- | --- | --- | --- | --- | --- |
| Cc1cc(S(=O)(=O)Nc2n[nH]c(Nc3ccccc3)n2)c(S)cc1Cl | > 10 µM (inactive) | > 10 µM (inactive) | > 10 | > 10 µM (inactive) | > 10 µM (inactive) | > 10 µM (inactive) | > 10 µM (inactive) | > 10 µM (inactive) | > 10 µM (inactive) | > 10 µM (inactive) | > 10 µM (inactive) | > 10 µM (inactive) | > 10 µM (inactive) | > 10 µM (inactive) | > 10 µM (inactive) | > 10 µM (inactive) | > 10 µM (inactive) | > 10 µM (inactive) |
| O=C1NC(=S)NC(=O)C1=Cc1cccc2cc3ccccc3cc12 | 0.378 µM (active) | 1.47 µM (inactive) | 1.68 | 1.71 µM (inactive) | 2.13 µM (inactive) | 1.67 µM (inactive) | 1.98 µM (inactive) | 1.67 µM (inactive) | 2.24 µM (inactive) | 1.8 µM (inactive) | 1.87 µM (inactive) | 2.28 µM (inactive) | 1.86 µM (inactive) | 2.46 µM (inactive) | 1.92 µM (inactive) | 2.83 µM (inactive) | 2.58 µM (inactive) | 1.87 µM (inactive) |
| N#Cc1c(C#N)c(-c2ccccc2)n(-c2ccccc2)c1N | 87.5 µM (inactive) | 85.7 µM (inactive) | > 100 | > 100 µM (inactive) | > 100 µM (inactive) | 88.5 µM (inactive) | > 100 µM (inactive) | > 100 µM (inactive) | > 100 µM (inactive) | > 100 µM (inactive) | 80.7 µM (inactive) | 56.2 µM (inactive) | > 100 µM (inactive) | 15.3 µM (inactive) | 99.1 µM (inactive) | 83.6 µM (inactive) | > 100 µM (inactive) | 69.5 µM (inactive) |
| COCc1nc2c(OC)c(-c3nc4ccc(N5CCN(C)CC5)cc4[nH]3)cc(OC)c2[nH]1 | 27.5 µM (inactive) | 31.3 µM (inactive) | 56.1 | 33.6 µM (inactive) | 31.5 µM (inactive) | 97.9 µM (inactive) | 28.1 µM (inactive) | 18.7 µM (inactive) | 17.4 µM (inactive) | 35.6 µM (inactive) | 83.4 µM (inactive) | 59.2 µM (inactive) | 60.7 µM (inactive) | 21.6 µM (inactive) | 27.9 µM (inactive) | 52.1 µM (inactive) | 40.6 µM (inactive) | 80.7 µM (inactive) |
| Fc1cccc(F)c1C1SCc2nc3cc(Cl)c(Cl)cc3n21 (stereo not drawn) | > 100 µM (inactive) | > 100 µM (inactive) | > 100 | > 100 µM (inactive) | > 100 µM (inactive) | > 100 µM (inactive) | > 100 µM (inactive) | > 100 µM (inactive) | > 100 µM (inactive) | > 100 µM (inactive) | > 100 µM (inactive) | > 100 µM (inactive) | > 100 µM (inactive) | > 100 µM (inactive) | > 100 µM (inactive) | > 100 µM (inactive) | > 100 µM (inactive) | > 100 µM (inactive) |
| CCN(CC)C(=O)Cn1c(C)cc2ccccc21 | > 100 µM (inactive) | > 100 µM (inactive) | > 100 | > 100 µM (inactive) | > 100 µM (inactive) | > 100 µM (inactive) | > 100 µM (inactive) | > 100 µM (inactive) | > 100 µM (inactive) | > 100 µM (inactive) | > 100 µM (inactive) | > 100 µM (inactive) | > 100 µM (inactive) | > 100 µM (inactive) | > 100 µM (inactive) | > 100 µM (inactive) | > 100 µM (inactive) | > 100 µM (inactive) |
| Nc1cnc(Nc2cccc3ccccc23)o1 | > 10 µM (inactive) | > 10 µM (inactive) | > 10 | > 10 µM (inactive) | > 10 µM (inactive) | > 10 µM (inactive) | > 10 µM (inactive) | > 10 µM (inactive) | > 10 µM (inactive) | > 10 µM (inactive) | > 10 µM (inactive) | > 10 µM (inactive) | > 10 µM (inactive) | > 10 µM (inactive) | > 10 µM (inactive) | > 10 µM (inactive) | > 10 µM (inactive) | > 10 µM (inactive) |
| CCC1CC(C)C(O)/C=C/C=C/CC(C)OC(=O)CC(O)C(OC)C1OC1OC(C)CC(O)(C(C)=O)C1O (stereo not drawn) | 46.5 µM (inactive) | 96.6 µM (inactive) | 23.9 | 21.8 µM (inactive) | 59.4 µM (inactive) | > 100 µM (inactive) | 35.2 µM (inactive) | > 100 µM (inactive) | 78.5 µM (inactive) | 40.3 µM (inactive) | 45.2 µM (inactive) | 8.47 µM (inactive) | > 100 µM (inactive) | > 100 µM (inactive) | 39.1 µM (inactive) | > 100 µM (inactive) | > 100 µM (inactive) | > 100 µM (inactive) |
| O=c1c2nc[nH]c2n(-c2ccccc2)c(=S)n1-c1ccccc1 | > 100 µM (inactive) | > 100 µM (inactive) | > 100 | > 100 µM (inactive) | > 100 µM (inactive) | > 100 µM (inactive) | > 100 µM (inactive) | > 100 µM (inactive) | > 100 µM (inactive) | > 100 µM (inactive) | > 100 µM (inactive) | > 100 µM (inactive) | > 100 µM (inactive) | > 100 µM (inactive) | > 100 µM (inactive) | > 100 µM (inactive) | > 100 µM (inactive) | > 100 µM (inactive) |
| COc1cccc(Nc2nc(N)nc(N)c2N=O)c1 | 23.2 µM (inactive) | 13.2 µM (inactive) | 22 | 19.1 µM (inactive) | 21.8 µM (inactive) | 2.38 µM (inactive) | 29.1 µM (inactive) | 15.1 µM (inactive) | 30.8 µM (inactive) | 3.8 µM (inactive) | 15.3 µM (inactive) | 31.8 µM (inactive) | 16.1 µM (inactive) | 27 µM (inactive) | 31 µM (inactive) | 29.2 µM (inactive) | 31.3 µM (inactive) | 15.5 µM (inactive) |
| COc1ccc(Cl)cc1NC(=O)O/N=C(\Cl)C(C)C | 1.04 µM (active) | 19.3 µM (inactive) | 2.64 | 2.16 µM (inactive) | 16.4 µM (inactive) | 12.2 µM (inactive) | 16.8 µM (inactive) | 2.08 µM (inactive) | 3.28 µM (inactive) | 6.71 µM (inactive) | 17.6 µM (inactive) | 17.2 µM (inactive) | 15 µM (inactive) | 17.9 µM (inactive) | 18.7 µM (inactive) | 18.7 µM (inactive) | 2.7 µM (inactive) | 12.9 µM (inactive) |
| C/C(=N\C1CCCCC1)c1ccccc1O | 54 µM (inactive) | > 100 µM (inactive) | > 100 | 56.1 µM (inactive) | > 100 µM (inactive) | > 100 µM (inactive) | > 100 µM (inactive) | > 100 µM (inactive) | > 100 µM (inactive) | > 100 µM (inactive) | > 100 µM (inactive) | > 100 µM (inactive) | > 100 µM (inactive) | > 100 µM (inactive) | > 100 µM (inactive) | > 100 µM (inactive) | > 100 µM (inactive) | > 100 µM (inactive) |
| CCCCCCCCCCCCCCCCNc1nc(=O)n(C2OC(C)C(O)C2O)cc1F (stereo not drawn) | 16.3 µM (inactive) | 19.5 µM (inactive) | 14.9 | 14.5 µM (inactive) | 17.2 µM (inactive) | 17.6 µM (inactive) | 17.4 µM (inactive) | 24.3 µM (inactive) | 17.2 µM (inactive) | 17 µM (inactive) | 18 µM (inactive) | 22.1 µM (inactive) | 21.8 µM (inactive) | 20.8 µM (inactive) | 18.9 µM (inactive) | 22.9 µM (inactive) | 19.9 µM (inactive) | 15.6 µM (inactive) |
| O/N=C(/CC(O)(C(F)(F)F)C(F)(F)F)c1ccccc1 | > 10 µM (inactive) | > 10 µM (inactive) | > 10 | > 10 µM (inactive) | > 10 µM (inactive) | > 10 µM (inactive) | > 10 µM (inactive) | > 10 µM (inactive) | > 10 µM (inactive) | > 10 µM (inactive) | > 10 µM (inactive) | > 10 µM (inactive) | > 10 µM (inactive) | > 10 µM (inactive) | > 10 µM (inactive) | > 10 µM (inactive) | > 10 µM (inactive) | > 10 µM (inactive) |
| COc1ccc2nc3c([N+](=O)[O-])ccc4c3c(c2c1)N=CN4CCN(C)C | 0.764 µM (active) | 4.09 µM (inactive) | 2.57 | 0.266 µM (active) | 2.52 µM (inactive) | 2.47 µM (inactive) | 3.86 µM (inactive) | 3.38 µM (inactive) | 4.8 µM (inactive) | 3.3 µM (inactive) | 7.55 µM (inactive) | 9.02 µM (inactive) | 2.82 µM (inactive) | 5.57 µM (inactive) | 9.23 µM (inactive) | 9.27 µM (inactive) | 3.3 µM (inactive) | 8.71 µM (inactive) |
| OCCNc1ncnc2c1ncn2C1OC(CO)C(O)C1O (stereo not drawn) | 30.3 µM (inactive) | 19.3 µM (inactive) | 42.5 | 33.1 µM (inactive) | > 100 µM (inactive) | > 100 µM (inactive) | > 100 µM (inactive) | 40.4 µM (inactive) | > 100 µM (inactive) | 39.4 µM (inactive) | > 100 µM (inactive) | > 100 µM (inactive) | 35 µM (inactive) | > 100 µM (inactive) | > 100 µM (inactive) | > 100 µM (inactive) | > 100 µM (inactive) | > 100 µM (inactive) |
